From patent EP1247803A2, “Indolinone compounds suitable for modulation of protein kinases” (Sugen, Inc., priority 1996, dated 1998)

Tests used:
[1] = molecular target: T1, FLK-1 receptor (Mus musculus, UniProt P35918); test: FLK-1 ELISA (kinase activity of the FLK-1 receptor in FLK-1/NIH3T3 cells, VEGF stimulated); format: cell-based
T1 construct: expressed in transfected cells; host or cells: NIH3T3 C7#3
Outline: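 FLK-1-expressing NIH3T3 C7#3 cells, starved overnight in 0.1% FBS medium, were treated with compounds at a 1:200 final dilution (0.5% DMSO) for 2 h at 37 °C, with VEGF stimulation. FLK-1 kinase activity was read by ELISA on anti-rabbit IgG plates using affinity-purified anti-FLK-1 antiserum.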

[2] = molecular target: PDGF-R (Homo sapiens, UniProt P09619); test: PDGF-R ELISA; format: cell-based
Description: A PDGF-R ELISA is described in International Patent Publication No. WO 96/40116, published December 19, 1996 by Tang et al.

Chain of PDGF-R (P09619 33-1106, species assumed): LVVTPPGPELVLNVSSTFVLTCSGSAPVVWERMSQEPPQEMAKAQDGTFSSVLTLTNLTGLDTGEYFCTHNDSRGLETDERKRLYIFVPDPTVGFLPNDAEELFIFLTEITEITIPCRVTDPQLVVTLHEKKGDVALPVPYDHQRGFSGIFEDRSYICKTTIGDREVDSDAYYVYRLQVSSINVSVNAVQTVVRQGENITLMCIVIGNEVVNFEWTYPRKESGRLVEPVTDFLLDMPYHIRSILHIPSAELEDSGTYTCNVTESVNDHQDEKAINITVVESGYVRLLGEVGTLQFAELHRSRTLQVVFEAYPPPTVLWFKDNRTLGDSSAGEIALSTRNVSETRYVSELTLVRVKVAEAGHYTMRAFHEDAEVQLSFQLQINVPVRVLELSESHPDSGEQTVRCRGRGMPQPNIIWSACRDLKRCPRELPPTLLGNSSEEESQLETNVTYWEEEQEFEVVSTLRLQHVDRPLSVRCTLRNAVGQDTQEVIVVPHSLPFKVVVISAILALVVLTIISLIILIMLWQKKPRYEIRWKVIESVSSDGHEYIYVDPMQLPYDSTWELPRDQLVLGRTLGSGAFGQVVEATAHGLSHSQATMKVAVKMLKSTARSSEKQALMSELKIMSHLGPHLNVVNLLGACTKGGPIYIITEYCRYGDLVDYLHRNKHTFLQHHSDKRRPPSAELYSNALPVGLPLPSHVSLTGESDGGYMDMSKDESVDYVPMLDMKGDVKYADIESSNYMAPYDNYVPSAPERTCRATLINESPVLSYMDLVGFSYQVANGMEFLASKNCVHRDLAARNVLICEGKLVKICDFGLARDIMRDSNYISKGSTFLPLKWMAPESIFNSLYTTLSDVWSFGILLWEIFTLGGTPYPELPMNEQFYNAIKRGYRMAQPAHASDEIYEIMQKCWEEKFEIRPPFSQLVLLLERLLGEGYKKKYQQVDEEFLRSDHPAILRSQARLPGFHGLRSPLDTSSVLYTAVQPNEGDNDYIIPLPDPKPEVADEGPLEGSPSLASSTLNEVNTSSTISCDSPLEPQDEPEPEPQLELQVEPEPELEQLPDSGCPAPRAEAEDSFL
T1 sequence (P35918 20-1345): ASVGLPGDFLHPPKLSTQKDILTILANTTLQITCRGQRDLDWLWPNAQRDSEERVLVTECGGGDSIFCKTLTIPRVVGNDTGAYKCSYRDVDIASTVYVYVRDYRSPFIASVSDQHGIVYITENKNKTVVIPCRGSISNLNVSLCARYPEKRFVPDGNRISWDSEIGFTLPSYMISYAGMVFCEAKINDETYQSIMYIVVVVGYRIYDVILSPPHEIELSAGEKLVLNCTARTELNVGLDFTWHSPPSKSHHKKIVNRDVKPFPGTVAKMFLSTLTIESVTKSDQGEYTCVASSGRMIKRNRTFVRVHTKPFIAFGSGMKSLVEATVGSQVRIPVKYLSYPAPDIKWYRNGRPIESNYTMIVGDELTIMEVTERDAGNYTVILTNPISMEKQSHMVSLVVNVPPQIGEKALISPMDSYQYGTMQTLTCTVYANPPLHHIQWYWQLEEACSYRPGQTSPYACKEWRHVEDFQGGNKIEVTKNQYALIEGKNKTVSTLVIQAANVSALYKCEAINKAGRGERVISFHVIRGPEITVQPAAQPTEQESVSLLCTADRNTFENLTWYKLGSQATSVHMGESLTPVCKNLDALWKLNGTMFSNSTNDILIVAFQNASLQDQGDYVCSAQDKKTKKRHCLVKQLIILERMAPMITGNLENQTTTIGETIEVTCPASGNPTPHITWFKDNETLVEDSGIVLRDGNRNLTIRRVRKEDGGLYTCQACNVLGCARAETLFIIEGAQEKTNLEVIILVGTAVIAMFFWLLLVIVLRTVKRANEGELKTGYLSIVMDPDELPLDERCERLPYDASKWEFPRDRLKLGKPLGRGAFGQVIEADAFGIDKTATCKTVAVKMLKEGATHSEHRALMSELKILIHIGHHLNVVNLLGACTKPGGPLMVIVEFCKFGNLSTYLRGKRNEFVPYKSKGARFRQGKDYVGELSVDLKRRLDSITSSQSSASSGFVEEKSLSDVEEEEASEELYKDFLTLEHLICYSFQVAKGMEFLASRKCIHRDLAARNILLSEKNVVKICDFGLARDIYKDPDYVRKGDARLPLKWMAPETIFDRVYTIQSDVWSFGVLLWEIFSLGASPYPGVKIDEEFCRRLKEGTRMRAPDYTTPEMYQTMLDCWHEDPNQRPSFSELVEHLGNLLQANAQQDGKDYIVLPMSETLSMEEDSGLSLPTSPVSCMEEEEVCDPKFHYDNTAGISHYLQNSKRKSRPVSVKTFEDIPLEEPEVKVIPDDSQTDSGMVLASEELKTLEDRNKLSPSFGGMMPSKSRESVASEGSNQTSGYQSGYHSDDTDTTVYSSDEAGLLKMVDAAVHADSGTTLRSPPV

Row | SMILES | Fik Kinase %Inhibition [1] | PDGF Kinase %Inhibition [2]
1 | Cc1c(Br)ccc2c1C(=Cc1c(Br)cnn1-c1ccc(Cl)cc1)C(=O)N2 [10725/C10] | 8.7% | 38.5%
2 | Cc1cc(C=C2C(=O)Nc3ccc(Br)c(C)c32)cc(C(C)(C)C)c1O [10726/C04] | 12.3% | 36.6%
3 | Cc1ccc(C=C2C(=O)Nc3ccc(CCCl)cc32)o1 [10725/G04] | 6.1% | -8.9%
4 | O=C1Nc2ccc(CCCl)cc2C1=Cc1c[nH]cn1 [10725/G11] | -28.0% | 22.2%
5 | Cc1cc(C=C2C(=O)Nc3ccc(S(=O)(=O)Nc4ccc(C(F)(F)F)cc4)cc32)[nH]n1 [10725/E05] | -0.2% | 27.5%
6 | COC(=O)Cc1c(Cl)[nH]c(C=C2C(=O)Nc3ccc(Br)c(C)c32)c1C(=O)OC [10725/C09] | 11.2% | 34.7%
7 | O=C1Nc2ccc(CCCl)cc2C1=Cc1c(Br)cnn1-c1ccc(Cl)cc1 [10725/G10] | 11.1% | 44.7%
8 | COc1ccc(Br)c(C=C2C(=O)Nc3ccc(Br)c(C)c32)c1O [10725/C03] | 2.0% | 19.3%
9 | CCc1ccc(C=C2C(=O)Nc3c(Br)cc(Br)cc32)s1 [10726/A10] | 3.7% | 8.1%
10 | O=C1Nc2ccc(S(=O)(=O)N3CCOCC3)cc2C1=Cc1ccc(N2CCOCC2)cc1 [10725/F08] | 8.9% | 28.9%
11 | CNS(=O)(=O)c1ccc2c(c1)C(=Cc1ccc(N3CCOCC3)cc1)C(=O)N2 [10725/D08] | 1.8% | 38.5%
12 | Cc1cc(C=C2C(=O)Nc3ccc(S(=O)(=O)N4CCOCC4)cc32)[nH]n1 [10725/F05] | -0.8% | -5.6%
13 | Cc1ccc(C=C2C(=O)Nc3ccc(Br)c(C)c32)o1 [10725/C04] | -27.3% | 25.1%
14 | Cc1ccc(C=C2C(=O)Nc3ccc(S(=O)(=O)N4CCOCC4)cc32)o1 [10725/F04] | -6.9% | -4.6%
15 | COc1cc(C)cc(O)c1C=C1C(=O)Nc2ccc(S(=O)(=O)Nc3ccc(C(F)(F)F)cc3)cc21 [10725/E06] | -1.8% | 39.0%
16 | O=C1Nc2ccc(S(=O)(=O)N3CCOCC3)cc2C1=Cc1c(Br)cnn1-c1ccc(Cl)cc1 [10725/F10] | 4.8% | 17.9%
17 | COc1cc(C)cc(O)c1C=C1C(=O)Nc2ccc(CCCl)cc21 [10725/G06] | 21.7% | 27.5%

Row | SMILES | Fik Kinase %Inhibition [1] | PDGF Kinase %Inhibition [2]
18 | Cc1cc(C=C2C(=O)Nc3ccc(CCCl)cc32)[nH]n1 [10725/G05] | -18.3% | 7.4%
19 | COc1ccc(Br)c(C=C2C(=O)Nc3ccc(S(=O)(=O)N4CCOCC4)cc32)c1O [10725/F03] | 4.3% | -27.1%
20 | COc1cc(C)cc(O)c1C=C1C(=O)Nc2ccc(S(=O)(=O)N3CCOCC3)cc21 [10725/F06] | -1.0% | 14.1%
21 | O=C1Nc2ccc(CCCl)cc2C1=Cc1sccc1Br [10725/G02] | -3.7% | -11.8%
22 | CNS(=O)(=O)c1ccc2c(c1)C(=Cc1cc(C)n[nH]1)C(=O)N2 [10725/D05] | 2.3% | 10.7%
23 | COC(=O)Cc1c(Cl)[nH]c(C=C2C(=O)Nc3ccc(S(=O)(=O)Nc4ccc(C(F)(F)F)cc4)cc32)c1C(=O)OC [10725/E09] | 7.0% | 37.5%
24 | Cc1cc(C=C2C(=O)Nc3c(Br)cc(Br)cc32)cc(C(C)(C)C)c1O [10726/A04] | 7.6% | 44.2%
25 | COc1ccc(C=C2C(=O)Nc3ccc(I)cc32)cc1 [10726/B11] | 7.4% | 23.3%
26 | Cc1cc(C=C2C(=O)Nc3ccc(Br)c(C)c32)[nH]n1 [10725/C05] | -37.0% | 28.9%
27 | O=C1Nc2ccc(F)cc2C1=C1C(=O)Nc2c(Br)cc(Br)cc21 [10726/A08] | -4.0% | 10.7%
28 | COc1ccc(Br)c(C=C2C(=O)Nc3ccc(CCCl)cc32)c1O [10725/G03] | -6.9% | -6.5%
29 | CCc1ccc(C=C2C(=O)Nc3ccc(I)cc32)s1 [10726/B10] | 3.7% | 6.2%
30 | CNS(=O)(=O)c1ccc2c(c1)C(=Cc1c(Br)cnn1-c1ccc(Cl)cc1)C(=O)N2 [10725/D10] | 9.0% | 43.8%
31 | CNS(=O)(=O)c1ccc2c(c1)C(=Cc1c(Br)ccc(OC)c1O)C(=O)N2 [10725/D03] | -11.3% | 5.4%
32 | O=CN1CCN(c2ccc(C=C3C(=O)Nc4ccc(S(=O)(=O)N5CCOCC5)cc43)cc2)CC1 [10725/F07] | 6.9% | 15.0%
33 | COC(=O)Cc1c(Cl)[nH]c(C=C2C(=O)Nc3ccc(CCCl)cc32)c1C(=O)OC [10725/G09] | 15.2% | 43.8%
